{
  "source": "patent US20250130239A1",
  "about": "“PROTEIN DEGRADER” (University of Dundee, priority 2021, published 2025)",
  "key": {"[1]": {"biological_target": "T1, BromoTag-Brd2 (Homo sapiens, UniProt O60885+P40337, L387A)", "T1 construct": "comprising residues 368-440 of human Brd4; Brd2 (endogenous protein, fusion partner in the same polypeptide); eGFP-P2A (upstream marker in the knock-in cassette) (N, cleaved yes); expressed in transfected cells; host or cells: HEK293, heterozygous CRISPR knock-in at the endogenous BRD2 locus", "assay": "Competition assay (inhibitor pre-treatment, then AGB1)", "format": "cell-based", "settings": "then 200 nM 46 for 3 h", "method": "Competition Assay. Heterozygous BromoTag-Brd2 HEK293 cells were plated in six-well plates at a density of 5×10^5 cells per well in 2 mL DMEM media. […] After 1 h, 200 nM of AGB1 was added to the previously compound treated cells. After a following 3 h the cells were harvested for subsequent processing via western blot. Each treatment was performed in tandem to produce two technical repeats per condition. The 6 well plates were incubated for 4 h at 37° C. and 5% CO2 throughout the experiment.\nWestern Blotting. All cells were harvested on ice with RIPA lysis, and extraction buffer (ThermoFisher Scientific, 89901) supplemented with protease inhibitor cocktail (Merck, 11697498001) and Benzonase® Nuclease (Sigma, E1014) before being store at −20° C. prior to use. Total protein quantity was determined using the BCA protein assay (#23225, Pierce, Rockford, Illinois). Protein concentration was determined using the BCA assay (ThermoFisher Scientific, 23225). Samples were then prepared and loaded onto NuPAGE™ 4-12% Bis-Tris Midi gels (ThermoFisher Scientific, WG1403A), followed by the transfer of the proteins onto nitrocellulose membranes (EMD Millipore). The membranes were blocked for 1 h prior to incubation with the primary antibodies using 5% Milk TBST. Membranes were probed for Brd2 (Abcam, Ab139690, 1:1000), Brd3 (Abcam, Ab50818, 1:4000), Brd4 (Abcam, Ab128874, 1:1000) or our polyclonal Brd4^BD2 L387A antibody. Following overnight incubation with the primary antibodies at 4° C., the membranes were incubated with secondary antibodies (Anti-rabbit, Abcam AB216773, 1:5000 or anti-mouse, Abcam AB216774, 1:5000) and hFAB™ Rhodamine Anti-Tubulin Antibody (Biorad, 12004165, 1:10000) for one h and then imaged with a Bio-Rad imager (LI-COR Biosciences). All western blots were analysed for band intensities using Image Lab from Bio-Rad (LI-COR, Biosciences). The data extracted from these blots were then plotted and analysed using Prism (v. 8.2.0, GraphPad)."}, "[2]": {"biological_target": "T2, PPM1H (Q9ULR3), BromoTag C-term (Homo sapiens, UniProt O60885+P40337, L387A)", "T2 construct": "comprising residues 368-440 of human Brd4; PPM1H (endogenous protein, fusion partner in the same polypeptide); expressed in transfected cells", "T2 sequence (P40337 whole entry, other chains not shown, the tested form may be a part)": "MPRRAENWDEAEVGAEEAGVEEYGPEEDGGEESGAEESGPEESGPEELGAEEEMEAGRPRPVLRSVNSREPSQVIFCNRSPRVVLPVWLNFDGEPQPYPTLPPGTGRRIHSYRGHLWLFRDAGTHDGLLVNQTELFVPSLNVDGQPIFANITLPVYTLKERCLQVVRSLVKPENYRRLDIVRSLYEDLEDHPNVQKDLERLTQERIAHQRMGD", "assay": "Degradation of BromoTag'ed PPM1H by AGB1", "format": "cell-based", "description": "Degradation of a variety of target proteins. […] We performed CRISPR knock-in of the BromoTag, as described, into the endogenous loci of five additional proteins. […] The target proteins of Table 6 are all different, are all known to have different cellular roles and function, intracellular expression, and distinctive turnover rates within cells."}},
  "data": [
    {"smiles": "CC[C@@H](C(=O)OCCOCCOCCOCC(=O)N[C@H](C(=O)N1C[C@H](O)C[C@H]1C(=O)NCc1ccc(-c2scnc2C)cc1)C(C)(C)C)[C@@H]1N=C(c2ccc(Cl)cc2)c2c(sc(C)c2C)-n2c(C)nnc21", "note": "(single isomer, unassigned) [AGB1 (46)]", "values": [
      {"measurement": "on-target degradation activity after pre-treatment with MLN4924", "setting": "[1]; 3 μM MLN4924 1 h", "result": "completely abrogated"},
      {"measurement": "on-target degradation activity after pre-treatment with ET-JQ1-OMe", "setting": "[1]; 10 μM ET-JQ1-OMe 1 h", "result": "A similar outcome"},
      {"measurement": "on-target degradation activity after pre-treatment with VH298", "setting": "[1]; 10 μM VH298 1 h", "result": "completely abrogated"},
      {"measurement": "on-target degradation activity after pre-treatment with MG132", "setting": "[1]; 50 μM MG132 1 h", "result": "blocked"},
      {"measurement": "Dmax", "setting": "[2]", "result": "> 95", "unit": "%"},
      {"measurement": "pDC50", "setting": "[2]; BromoTag'ed PPM1H, C-term tag", "result": ">7.0"}
    ]}
  ]
}
